These results are taken from patent publication US20250361268A1, “NOVEL ANTI-INFLAMMATORY PEPTIDE AND USE THEREOF” (NOVACELL TECHNOLOGY INC., priority 2022, published 2025).

Peptide text beside a SMILES is read from it.

Experiment [1] concerns the target T1, FPR1 (Homo sapiens, UniProt P21462).
T1 sequence (P21462 1-350): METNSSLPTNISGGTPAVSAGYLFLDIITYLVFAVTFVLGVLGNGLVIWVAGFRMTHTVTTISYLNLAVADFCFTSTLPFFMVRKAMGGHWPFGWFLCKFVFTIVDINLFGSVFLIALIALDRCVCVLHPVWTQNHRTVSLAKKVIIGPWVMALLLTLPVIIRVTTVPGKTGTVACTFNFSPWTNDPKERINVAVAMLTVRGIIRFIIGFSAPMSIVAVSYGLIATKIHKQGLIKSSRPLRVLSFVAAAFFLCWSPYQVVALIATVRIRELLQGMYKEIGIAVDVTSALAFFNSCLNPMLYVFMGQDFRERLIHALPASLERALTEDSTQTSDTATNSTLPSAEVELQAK
Nature of the experiment: Change in calcium activity by peptide, FPR1 activation effect. The experiment is classed as cell-based. As to conditions: calcium activity (Fura-2), graded per Table 3, read-out: EC50 for [Ca^2+] FPR1. The method in brief:
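Calcium flux induced by peptide addition was monitored on a FlexStation 3 plate reader. Before this, cells seeded a day earlier (3×10^5/well) took up the Fura-2 dye for 1 h at 37 °C plus 30 min dark at room temperature.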

The target in the next experiment is T2, FPR2 (Homo sapiens, UniProt P25090).
T2 construct: expressed in transfected cells; host or cells: RBL cells (RBL-FPR2)
T2 sequence (P25090 1-351): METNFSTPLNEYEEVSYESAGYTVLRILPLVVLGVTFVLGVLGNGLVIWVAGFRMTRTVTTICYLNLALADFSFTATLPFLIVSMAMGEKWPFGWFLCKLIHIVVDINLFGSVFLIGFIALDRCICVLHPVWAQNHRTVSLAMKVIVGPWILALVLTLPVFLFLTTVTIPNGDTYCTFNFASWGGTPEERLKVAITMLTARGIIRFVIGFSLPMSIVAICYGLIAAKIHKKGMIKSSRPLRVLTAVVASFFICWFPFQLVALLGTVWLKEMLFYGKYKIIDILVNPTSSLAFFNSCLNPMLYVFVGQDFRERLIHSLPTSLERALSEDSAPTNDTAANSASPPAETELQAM
The experiment can be described thus: Change in calcium activity by peptide (Fura-2) in RBL cells overexpressing FPR2. As to conditions: calcium activity (Fura-2), graded per Table 3, read-out: EC50 for [Ca^2+] FPR2. It is filed as cell-based. A digest of the protocol: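 Peptide-induced intracellular calcium change measured by Fura-2 fluorescence on a plate reader. Cells: RBL line overexpressing FPR2, dye-loaded 1 h at 37 °C then 30 min at RT in dark; peptides from 0.5 mM water/50% DMSO stocks, diluted in HBSS with 20 mM HEPES.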

In experiment [2] the target is T3, FPR1 (UniProt P21462 1-350, limits assumed).
T3 sequence (looked up): T1 sequence (P21462 1-350)
Nature of the experiment: cell-based or functional assay.

A word on the EC50: it is the concentration giving half of the maximal effect. As to `CCCC(=O)N[C@@H](CCSC)C(=O)N[C@@H](CCCNC(=N)N)C(=O)N[C@@H](Cc1ccc(O)cc1)C(=O)N[C@@H](Cc1c[nH]c2ccccc12)C(=O)N1CCC[C@H]1C(=O)N[C@H](CCSC)C(N)=O` [Peptide 112] (HELM PEPTIDE1{[CCCC(=O)[*:2]].M.R.Y.W.P.[dM].[am]}$$$$V2.0), the EC50 was 1000 to 10000 nM at FPR1 [1] and less than 10 nM on FPR2.

For `CSCC[C@H](NC(C)=O)C(=O)N[C@@H](CCCCN)C(=O)N[C@@H](Cc1ccc(O)cc1)C(=O)N[C@@H](Cc1c[nH]c2ccccc12)C(=O)N[C@@H](Cc1ccc(O)cc1)C(=O)N[C@H](CCSC)C(N)=O` [Peptide 90] (HELM PEPTIDE1{[ac].M.K.Y.W.Y.[dM].[am]}$$$$V2.0), the EC50 on FPR1 [1] was greater than 10000 nM; at FPR2, 11 to 100 nM.

In the case of `CCCC(=O)N[C@H](C(=O)N[C@@H](CCCCN)C(=O)N[C@@H](Cc1ccc(O)cc1)C(=O)N[C@@H](CCCCN)C(=O)N[C@H](C(=O)N[C@H](CCSC)C(N)=O)C(C)C)[C@@H](C)CC` [Peptide 136] (HELM PEPTIDE1{[CCCC(=O)[*:2]].I.K.Y.K.V.[dM].[am]}$$$$V2.0), the EC50 on FPR1 [1] was greater than 10000 nM; on FPR2, less than 10 nM.

In the case of `CSCC[C@H](NC(=O)[C@H](CCCCN)NC(C)=O)C(=O)N[C@@H](CCCCN)C(=O)N[C@@H](Cc1ccc(O)cc1)C(=O)N[C@@H](CCCCN)C(=O)N1CCC[C@H]1C(=O)N[C@H](CCSC)C(N)=O` [Peptide 67] (HELM PEPTIDE1{[ac].K.M.K.Y.K.P.[dM].[am]}$$$$V2.0), the EC50 is greater than 10000 nM on FPR1 [1] and less than 10 nM on FPR2.

For the molecule `CSCC[C@H](NC(=O)[C@@H](N)CCCCN)C(=O)N[C@@H](CCCCN)C(=O)N[C@@H](Cc1ccc(O)cc1)C(=O)N[C@@H](CCCCN)C(=O)N[C@H](C(=O)N[C@H](CCSC)C(N)=O)C(C)C` [Peptide 9] (HELM PEPTIDE1{K.M.K.Y.K.V.[dM].[am]}$$$$V2.0), the EC50 on FPR1 [1] is greater than 10000 nM; on FPR2, 11 to 100 nM.

Take `CSCC[C@H](NC(=O)[C@H](CCCNC(=N)N)NC(C)=O)C(=O)N[C@@H](CCCNC(=N)N)C(=O)N[C@@H](Cc1ccc(O)cc1)C(=O)N[C@@H](Cc1ccc(O)cc1)C(=O)N[C@H](C(=O)N[C@H](CCSC)C(N)=O)C(C)C` [Peptide 98] (HELM PEPTIDE1{[ac].R.M.R.Y.Y.V.[dM].[am]}$$$$V2.0): the EC50 at FPR1 [1] is 1000 to 10000 nM; at FPR2, less than 10 nM.

As for `CSCC[C@H](NC(=O)[C@@H](N)CCCNC(=N)N)C(=O)N[C@@H](CCCNC(=N)N)C(=O)N[C@@H](Cc1ccc(O)cc1)C(=O)N[C@@H](CCCCN)C(=O)N1CCC[C@H]1C(=O)N[C@H](CCSC)C(N)=O` [Peptide 50] (HELM PEPTIDE1{R.M.R.Y.K.P.[dM].[am]}$$$$V2.0), the 50% effective concentration (EC50) at FPR1 [1] is greater than 10000 nM; at FPR2 it was less than 10 nM.

Regarding `CSCC[C@H](N)C(=O)N[C@@H](CCCNC(=N)N)C(=O)N[C@@H](Cc1ccc(O)cc1)C(=O)N[C@@H](Cc1ccc(O)cc1)C(=O)N1CCC[C@H]1C(=O)N[C@H](CCSC)C(N)=O` [Peptide 120] (HELM PEPTIDE1{M.R.Y.Y.P.[dM].[am]}$$$$V2.0), the EC50 on FPR1 [1] was 101 to 1000 nM; on FPR2, less than 10 nM.

`CSCC[C@H](NC(=O)[C@@H]1CCCN1C(C)=O)C(=O)N[C@@H](CCCNC(=N)N)C(=O)N[C@@H](Cc1ccc(O)cc1)C(=O)N[C@@H](CCCCN)C(=O)N1CCC[C@H]1C(=O)N[C@H](CCSC)C(N)=O` [Peptide 63] (HELM PEPTIDE1{[ac].P.M.R.Y.K.P.[dM].[am]}$$$$V2.0): the figures for the EC50 at FPR1 [1] and on FPR2 were greater than 10000 nM and less than 10 nM, respectively.

Take `CSCC[C@@H](NC(=O)[C@H](Cc1ccc(O)cc1)NC(=O)[C@H](Cc1c[nH]c2ccccc12)NC(=O)[C@H](Cc1ccc(O)cc1)NC(=O)[C@H](CCCNC(=N)N)NC(=O)[C@H](Cc1c[nH]c2ccccc12)NC(=O)[C@@H](N)CCCNC(=N)N)C(N)=O` [Peptide 77] (HELM PEPTIDE1{R.W.R.Y.W.Y.[dM].[am]}$$$$V2.0): the EC50 was greater than 10000 nM at FPR1 [1] and 11 to 100 nM on FPR2.

Take `CCCC(=O)N[C@H](C(=O)N[C@@H](CCCCN)C(=O)N[C@@H](Cc1ccc(O)cc1)C(=O)N[C@@H](CCCCN)C(=O)N1CCC[C@H]1C(=O)N[C@H](CCSC)C(N)=O)[C@@H](C)CC` [Peptide 144] (HELM PEPTIDE1{[CCCC(=O)[*:2]].I.K.Y.K.P.[dM].[am]}$$$$V2.0): the EC50 on FPR1 [1] was greater than 10000 nM; on FPR2, less than 10 nM.

As for `CSCC[C@@H](NC(=O)[C@@H](NC(=O)[C@H](Cc1c[nH]c2ccccc12)NC(=O)[C@H](Cc1ccc(O)cc1)NC(=O)[C@H](CCCCN)NC(=O)[C@H](Cc1c[nH]c2ccccc12)NC(=O)[C@H](CCCCN)NC(C)=O)C(C)C)C(N)=O` [Peptide 103] (HELM PEPTIDE1{[ac].K.W.K.Y.W.V.[dM].[am]}$$$$V2.0), the values for the EC50 at FPR1 [1] and at FPR2 were 1000 to 10000 nM and 11 to 100 nM, respectively.

Take `CSCC[C@H](NC(=O)[C@@H](N)CCCNC(=N)N)C(=O)N[C@@H](CCCNC(=N)N)C(=O)N[C@@H](Cc1ccc(O)cc1)C(=O)N[C@@H](CCCCN)C(=O)N[C@H](C(=O)N[C@H](CCSC)C(N)=O)C(C)C` [Peptide 5] (HELM PEPTIDE1{R.M.R.Y.K.V.[dM].[am]}$$$$V2.0): the values for the EC50 at FPR1 [1] and at FPR2 were greater than 10000 nM and less than 10 nM, respectively.

As to `CC[C@H](C)[C@H](N)C(=O)N[C@@H](CCCCN)C(=O)N[C@@H](Cc1ccccc1)C(=O)N[C@@H](CCCCN)C(=O)N[C@H](C(=O)N[C@H](CCSC)C(N)=O)C(C)C` [Peptide 132] (HELM PEPTIDE1{I.K.F.K.V.[dM].[am]}$$$$V2.0), the EC50 on FPR1 [1] was greater than 10000 nM; on FPR2 it was 11 to 100 nM.

With `CSCC[C@H](NC(=O)[C@@H](N)Cc1c[nH]cn1)C(=O)N[C@@H](CCCNC(=N)N)C(=O)N[C@@H](Cc1ccc(O)cc1)C(=O)N[C@@H](CCCNC(=N)N)C(=O)N[C@H](C(=O)N[C@H](CCSC)C(N)=O)C(C)C` [Peptide 31] (HELM PEPTIDE1{H.M.R.Y.R.V.[dM].[am]}$$$$V2.0), the EC50 is 1000 to 10000 nM at FPR1 [1] and less than 10 nM at FPR2.

On to `CSCC[C@@H](NC(=O)[C@@H](NC(=O)[C@H](Cc1ccc(O)cc1)NC(=O)[C@H](Cc1ccc(O)cc1)NC(=O)[C@H](CCCCN)NC(=O)[C@H](Cc1c[nH]c2ccccc12)NC(=O)[C@@H](N)CCCCN)C(C)C)C(N)=O` [Peptide 96] (HELM PEPTIDE1{K.W.K.Y.Y.V.[dM].[am]}$$$$V2.0), for which the figures for the EC50 at FPR1 [1] and on FPR2 were 1000 to 10000 nM and less than 10 nM, respectively.

As for `CC[C@H](C)[C@H](N)C(=O)N[C@@H](CCCCN)C(=O)N[C@@H](Cc1ccccc1)C(=O)N[C@@H](CCCCN)C(=O)N[C@@H](Cc1ccc(O)cc1)C(=O)N[C@H](CCSC)C(N)=O` [Peptide 131] (HELM PEPTIDE1{I.K.F.K.Y.[dM].[am]}$$$$V2.0), the figures for the EC50 on FPR1 [1] and at FPR2 were greater than 10000 nM and 11 to 100 nM, respectively.

B1: peptide of SEQ ID NO 44 (peptide)
peptide: HMRYKYM
HELM: PEPTIDE1{H.M.R.Y.K.Y.[dM].[am]}$$$$V2.0; N-terminus assumed
SMILES: CSCC[C@H](NC(=O)[C@@H](N)Cc1c[nH]cn1)C(=O)N[C@@H](CCCNC(=N)N)C(=O)N[C@@H](Cc1ccc(O)cc1)C(=O)N[C@@H](CCCCN)C(=O)N[C@@H](Cc1ccc(O)cc1)C(=O)N[C@H](CCSC)C(N)=O
In the case of B1, the “EC50 for [Ca2+]” value with FPR1 [2] is greater than 10000 nM.

B2: peptide of SEQ ID NO 48 (peptide)
peptide: RWRYRYM
HELM: PEPTIDE1{R.W.R.Y.R.Y.[dM].[am]}$$$$V2.0; N-terminus assumed
SMILES: CSCC[C@@H](NC(=O)[C@H](Cc1ccc(O)cc1)NC(=O)[C@H](CCCNC(=N)N)NC(=O)[C@H](Cc1ccc(O)cc1)NC(=O)[C@H](CCCNC(=N)N)NC(=O)[C@H](Cc1c[nH]c2ccccc12)NC(=O)[C@@H](N)CCCNC(=N)N)C(N)=O
B2: the “EC50 for [Ca2+]” value with FPR1 [2] is greater than 10000 nM.

B3: peptide of SEQ ID NO 43 (peptide)
peptide: MRYKYM
HELM: PEPTIDE1{[CCCC(=O)[*:2]].M.R.Y.K.Y.[dM].[am]}$$$$V2.0
SMILES: CCCC(=O)N[C@@H](CCSC)C(=O)N[C@@H](CCCNC(=N)N)C(=O)N[C@@H](Cc1ccc(O)cc1)C(=O)N[C@@H](CCCCN)C(=O)N[C@@H](Cc1ccc(O)cc1)C(=O)N[C@H](CCSC)C(N)=O
As for B3, in the experiment with FPR1 [2], the “EC50 for [Ca2+]” value was greater than 10000 nM.

B4: peptide of SEQ ID NO 49 (peptide)
peptide: MRYRYM
HELM: PEPTIDE1{[ac].M.R.Y.R.Y.[dM].[am]}$$$$V2.0
SMILES: CSCC[C@H](NC(C)=O)C(=O)N[C@@H](CCCNC(=N)N)C(=O)N[C@@H](Cc1ccc(O)cc1)C(=O)N[C@@H](CCCNC(=N)N)C(=O)N[C@@H](Cc1ccc(O)cc1)C(=O)N[C@H](CCSC)C(N)=O
Consider B4, for which the “EC50 for [Ca2+]” value with FPR1 [2] is greater than 10000 nM.
